Assay results reported in the supplement of paper PMC11061612.

What was measured:
Assay in all cases: combination Emax (second highest fraction inhibited in the dose matrix, 72 h); higher = more inhibition; extreme values may be limits of the assay
[1] = tested on: TOV-112D (Ovarian Carcinoma)
Method in brief: (§1)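 After 24 hours at 37°C and 5% CO2 in 1536-well plates, cells in DMEM/F12 or RPMI plus 10% FBS received two-drug dose matrices for 72 hours. Viability came from CellTiter-Glo 2.0 luminescence and was scaled as inhibition, anchored at 0 by vehicle wells and at 1 by blank wells. Combination Emax is taken as the second-highest inhibition in the matrix, and Bliss excess as the observed combination effect less EA + EB − EA·EB, with EA and EB the single-agent effects.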

[2] = tested on: HL-60 (Acute Myeloid Leukemia)
Method in brief: as §1

[3] = tested on: CHP-212 (Neuroblastoma)
Method in brief: as §1

[4] = tested on: SR (Other Blood Carcinomas)
Method in brief: as §1

[5] = tested on: MFM-223 (Breast Carcinoma)
Method in brief: as §1

[6] = tested on: MOLT-16 (T-Lymphoblastic Leukemia)
Method in brief: as §1

[7] = tested on: ES8 (Ewing's Sarcoma)
Method in brief: as §1

[8] = tested on: DiFi (Colorectal Carcinoma)
Method in brief: as §1

[9] = tested on: SU-DHL-8 (B-Cell Non-Hodgkin's Lymphoma)
Method in brief: as §1

[10] = tested on: WIL2-NS (Non-Cancerous)
Method in brief: as §1

[11] = tested on: TE-6 (Esophageal Squamous Cell Carcinoma)
Method in brief: as §1

[12] = tested on: KM12 (Colorectal Carcinoma)
Method in brief: as §1

[13] = tested on: GR-ST (B-Lymphoblastic Leukemia)
Method in brief: as §1

[14] = tested on: SW1417 (Colorectal Carcinoma)
Method in brief: as §1

[15] = tested on: HDQ-P1 (Breast Carcinoma)
Method in brief: as §1

[16] = tested on: ES1 (Ewing's Sarcoma)
Method in brief: as §1

[17] = tested on: KARPAS-45 (T-Lymphoblastic Leukemia)
Method in brief: as §1

[18] = tested on: K-562 (Chronic Myelogenous Leukemia)
Method in brief: as §1

[19] = tested on: L-540 (Hodgkin's Lymphoma)
Method in brief: as §1

[20] = tested on: P12-ICHIKAWA (T-Lymphoblastic Leukemia)
Method in brief: as §1

| SMILES | combination Emax [1] | combination Emax [2] | combination Emax [3] | combination Emax [4] | combination Emax [5] | combination Emax [6] | combination Emax [7] | combination Emax [8] | combination Emax [9] | combination Emax [10] | combination Emax [11] | combination Emax [12] | combination Emax [13] | combination Emax [14] | combination Emax [15] | combination Emax [16] | combination Emax [17] | combination Emax [18] | combination Emax [19] | combination Emax [20] |
| --- | --- | --- | --- | --- | --- | --- | --- | --- | --- | --- | --- | --- | --- | --- | --- | --- | --- | --- | --- | --- |
| Cc1cc2ncnn2cc1Nc1ncc2c(n1)n(C1CCOCC1)c(=O)n2C [AZD7648] + CN(C)CCCOc1ccc(-c2ccc3ncc4c(c3c2)n(C2CCOCC2)c(=O)n4C)cn1 [AZD0156] (first compound max 10 µM, 7x7, partner max 1 µM) | 0.38 | 0.416 | 0.288 | 0.377 | 0.238 | 0.511 | 0.408 | 0.273 | 0.125 | 0.395 | 0.363 | 0.241 | 0.489 | 0.326 | 0.403 | 0.478 | 0.234 | 0.2 | 0.366 | – |
| C[C@@H]1COCCN1c1cc(C2([S@](C)(=N)=O)CC2)nc(-c2ccnc3[nH]ccc23)n1 [AZD6738] + O=C(c1cc(Cc2n[nH]c(=O)c3ccccc23)ccc1F)N1CCN(C(=O)C2CC2)CC1 [Olaparib] (first compound max 10 µM, 7x7, partner max 10 µM) | 0.795 | 0.619 | 0.795 | 0.97 | 0.773 | 1 | 0.895 | 0.775 | 0.888 | 0.968 | 0.498 | 0.615 | 0.803 | 0.38 | 0.512 | 0.99 | 0.832 | 0.811 | 0.936 | – |
| Cc1cc2ncnn2cc1Nc1ncc2c(n1)n(C1CCOCC1)c(=O)n2C [AZD7648] + C=CCn1c(=O)c2cnc(Nc3ccc(N4CCN(C)CC4)cc3)nc2n1-c1cccc(C(C)(C)O)n1 [AZD1775] (first compound max 10 µM, partner max 1 µM) | 0.468 | 0.812 | 0.769 | 0.986 | 0.69 | 1 | 0.691 | 0.821 | 0.87 | 0.954 | 0.363 | 0.764 | 0.772 | 0.555 | 0.567 | 0.639 | 0.819 | 0.645 | 0.945 | – |
| CN(CCO)CC[C@H](CSc1ccccc1)Nc1ccc(S(=O)(=O)NC(=O)c2ccc(N3CCC([C@@H](O)c4ccccc4-c4ccc(Cl)cc4)CC3)cc2)cc1S(=O)(=O)C(F)(F)F [AZD4320] + C[C@@H](Nc1cc(F)cc(F)c1)c1cc(C(=O)N(C)C)cc2c(=O)cc(N3CCOCC3)oc12 [AZD8186] (first compound max 1 µM, 7x7, partner max 3 µM) | 0.205 | 0.958 | 0.752 | 0.713 | – | 1 | 0.99 | 0.961 | 1 | 0.652 | 0.563 | 0.315 | 0.537 | 0.707 | 0.787 | 0.725 | 1 | 0.313 | 0.668 | 1 |
| C=CCn1c(=O)c2cnc(Nc3ccc(N4CCN(C)CC4)cc3)nc2n1-c1cccc(C(C)(C)O)n1 [AZD1775] + C[C@@H]1COCCN1C2=NC(=NC(=C2)C3(CC3)[S@](=N)(=O)C)C4=C5C=CNC5=NC=C4 [AZD6738] (first compound max 1 µM, partner max 10 µM) | 0.764 | 0.893 | 0.823 | 1 | 0.897 | 1 | 0.905 | 0.895 | 0.903 | 1 | 0.669 | 0.852 | 0.78 | 0.655 | 0.76 | 0.948 | 1 | 0.934 | 0.941 | – |
| CC(=O)c1c(C)c2cnc(Nc3ccc(N4CCNCC4)cn3)nc2n(C2CCCC2)c1=O [Palbociclib] + CN(CC[C@H](CSC1=CC=CC=C1)NC2=C(C=C(C=C2)S(=O)(=O)NC(=O)C3=CC=C(C=C3)N4CCC(CC4)[C@H](C5=CC=CC=C5C6=CC=C(C=C6)Cl)O)S(=O)(=O)C(F)(F)F)CCO [AZD4320] (first compound max 10 µM, 7x7, partner max 1 µM) | 0.584 | 0.956 | 0.829 | – | 0.406 | 1 | – | 0.812 | 1 | – | 0.363 | 0.768 | – | – | 0.677 | – | 1 | – | – | 1 |
| COc1cccc2c1C(=O)c1c(O)c3c(c(O)c1C2=O)C[C@@](O)(C(=O)CO)C[C@@H]3O[C@H]1C[C@H](N)[C@H](O)[C@H](C)O1 [Doxorubicin] + Cc1cc2ncnn2cc1Nc1ncc2c(n1)n(C1CCOCC1)c(=O)n2C [AZD7648] (first compound max 1 µM, 7x7, partner max 10 µM) | 0.926 | 0.994 | 0.782 | 0.994 | 0.671 | 1 | 0.935 | 0.701 | 0.943 | 1 | 0.322 | 0.936 | 0.69 | 0.432 | 0.682 | 1 | 0.337 | 0.823 | 0.931 | – |
| CCN(CCO)CCCOc1ccc2c(Nc3cc(CC(=O)Nc4cccc(F)c4)[nH]n3)ncnc2c1 [AZD2811] + C[C@@H]1COCCN1C2=NC(=NC(=C2)C3(CC3)[S@](=N)(=O)C)C4=C5C=CNC5=NC=C4 [AZD6738] (first compound max 1 µM, 7x7, partner max 10 µM) | 0.707 | 0.899 | 0.791 | 0.968 | 0.8 | 1 | 1 | 0.819 | 0.918 | 0.979 | 0.543 | 0.612 | 0.732 | 0.341 | 0.391 | 0.948 | 0.948 | 0.881 | 0.921 | – |
| CN(C)CCCOc1ccc(-c2ccc3ncc4c(c3c2)n(C2CCOCC2)c(=O)n4C)cn1 [AZD0156] + C[C@@H]1COCCN1C2=NC(=NC(=C2)C3(CC3)[S@](=N)(=O)C)C4=C5C=CNC5=NC=C4 [AZD6738] (first compound max 1 µM, 7x7, partner max 10 µM) | 0.717 | 0.751 | 0.839 | 0.946 | 0.828 | 1 | 0.799 | 0.829 | 0.892 | 0.988 | 0.636 | 0.696 | 0.715 | 0.33 | 0.381 | 0.956 | 0.857 | 0.9 | 0.93 | – |
| CN(CCO)CC[C@H](CSc1ccccc1)Nc1ccc(S(=O)(=O)NC(=O)c2ccc(N3CCC([C@@H](O)c4ccccc4-c4ccc(Cl)cc4)CC3)cc2)cc1S(=O)(=O)C(F)(F)F [AZD4320] + Cn1cnc2c(F)c(Nc3ccc(Br)cc3Cl)c(C(=O)NOCCO)cc21 [Selumetinib] (first compound max 1 µM, 7x7, partner max 3 µM) | 0.248 | 0.994 | 0.925 | 0.731 | – | 1 | 0.99 | 0.951 | 0.988 | 0.633 | 0.593 | 0.579 | 0.494 | 0.935 | 0.771 | 0.786 | 0.996 | 0.516 | 0.716 | 1 |
| Cc1c2c(nn1C)CSCc1cc(n(C)n1)CSc1cc(c3ccccc3c1)OCCCc1c(C(=O)O)n(C)c3c-2c(Cl)ccc13 [AZD5991] + C1CN(CCC1(C(=O)N[C@@H](CCO)C2=CC=C(C=C2)Cl)N)C3=NC=NC4=C3C=CN4 [Capivasertib] (first compound max 1 µM, 7x7, partner max 3 µM) | 0.407 | 1 | – | 0.993 | 0.788 | 1 | 0.679 | 0.438 | 0.673 | 0.666 | 0.811 | 0.553 | 0.38 | 0.208 | 0.232 | 0.955 | 1 | 0.374 | 1 | 1 |
| CCN(CCO)CCCOc1ccc2c(Nc3cc(CC(=O)Nc4cccc(F)c4)[nH]n3)ncnc2c1 [AZD2811] + O=C(c1cc(Cc2n[nH]c(=O)c3ccccc23)ccc1F)N1CCN(C(=O)C2CC2)CC1 [Olaparib] (first compound max 1 µM, 7x7, partner max 10 µM) | 0.394 | 0.83 | 0.771 | 0.875 | 0.274 | 1 | 0.997 | 0.516 | 0.738 | 0.397 | 0.212 | 0.176 | 0.448 | 0.109 | 0.264 | 0.855 | 0.882 | 0.366 | 0.509 | – |
| C=CCn1c(=O)c2cnc(Nc3ccc(N4CCN(C)CC4)cc3)nc2n1-c1cccc(C(C)(C)O)n1 [AZD1775] + O=C(c1cc(Cc2n[nH]c(=O)c3ccccc23)ccc1F)N1CCN(C(=O)C2CC2)CC1 [Olaparib] (first compound max 1 µM, partner max 10 µM) | 0.427 | 0.36 | 0.831 | 0.995 | 0.56 | 1 | 0.829 | 0.678 | 0.877 | 0.931 | 0.319 | 0.748 | 0.806 | 0.564 | 0.517 | 0.838 | 0.847 | 0.845 | 0.946 | – |
